Target: T1, H+/K+-ATPase (Sus scrofa, UniProt P19156)
T1 construct: reaction buffer solution (60 mmol/l Tris-HCl buffer solution, pH 7.4) containing hog gastric vesicle; from tissue; host or cells: hog stomach (gastric vesicles, by centrifugation after Rabon et al. 1988)
Test: Inhibition of proton pump (H+/K+-ATPase) activity in hog gastric vesicles
Assay type: biochemical
Settings: K+ specific H+/K+-ATPase activity, pH 7.4, 37° C. for 40 minutes, malachite green
Outline: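 Hog gastric vesicles in 60 mmol/l Tris-HCl pH 7.4 with compound, started with ATP, 40 min at 37° C. Pi read by malachite green at 570 nm; K+-specific activity taken as difference between +K+ and −K+ activity. IC50 from % inhibition by 4-parameter logistic fit.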

T1 sequence (P19156 2-1034 limits assumed): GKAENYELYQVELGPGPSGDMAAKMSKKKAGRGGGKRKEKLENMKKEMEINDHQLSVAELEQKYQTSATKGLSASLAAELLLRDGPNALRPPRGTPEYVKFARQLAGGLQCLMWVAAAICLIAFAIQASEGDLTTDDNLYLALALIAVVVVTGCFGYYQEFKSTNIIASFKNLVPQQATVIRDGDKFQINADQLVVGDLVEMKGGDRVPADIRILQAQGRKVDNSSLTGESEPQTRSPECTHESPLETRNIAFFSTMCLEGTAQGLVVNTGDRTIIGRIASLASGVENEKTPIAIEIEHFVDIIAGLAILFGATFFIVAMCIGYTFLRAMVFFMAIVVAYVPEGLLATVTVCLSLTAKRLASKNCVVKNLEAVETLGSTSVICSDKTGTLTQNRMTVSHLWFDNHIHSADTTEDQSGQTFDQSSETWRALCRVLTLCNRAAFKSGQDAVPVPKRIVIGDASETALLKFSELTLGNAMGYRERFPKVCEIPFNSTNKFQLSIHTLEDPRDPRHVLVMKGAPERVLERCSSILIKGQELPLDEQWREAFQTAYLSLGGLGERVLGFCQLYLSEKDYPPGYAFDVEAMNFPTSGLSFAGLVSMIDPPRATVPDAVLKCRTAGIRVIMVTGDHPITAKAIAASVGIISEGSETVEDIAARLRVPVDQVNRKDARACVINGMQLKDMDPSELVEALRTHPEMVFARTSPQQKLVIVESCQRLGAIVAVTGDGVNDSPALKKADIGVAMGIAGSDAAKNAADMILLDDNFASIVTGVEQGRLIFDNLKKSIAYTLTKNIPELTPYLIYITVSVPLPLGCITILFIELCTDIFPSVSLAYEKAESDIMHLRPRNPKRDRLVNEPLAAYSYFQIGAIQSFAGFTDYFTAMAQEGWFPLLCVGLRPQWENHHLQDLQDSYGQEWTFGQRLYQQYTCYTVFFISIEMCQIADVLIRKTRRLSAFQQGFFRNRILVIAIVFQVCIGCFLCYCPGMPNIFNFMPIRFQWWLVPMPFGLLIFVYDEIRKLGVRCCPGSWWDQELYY
T1 sequence (P18434 whole entry partner): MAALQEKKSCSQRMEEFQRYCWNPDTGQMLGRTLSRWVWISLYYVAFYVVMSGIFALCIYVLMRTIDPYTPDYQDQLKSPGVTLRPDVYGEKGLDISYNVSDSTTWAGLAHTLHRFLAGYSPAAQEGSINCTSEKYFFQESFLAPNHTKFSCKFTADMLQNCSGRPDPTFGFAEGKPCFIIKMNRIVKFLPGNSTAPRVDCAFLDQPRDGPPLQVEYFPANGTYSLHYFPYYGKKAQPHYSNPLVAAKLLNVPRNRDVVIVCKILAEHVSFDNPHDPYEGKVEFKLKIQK

Row | SMILES | IC50 [µM]
1 | Cc1oc(=O)oc1CN(C)C1CCc2c1cn(S(=O)(=O)c1cccc(F)c1)c2-c1ccc(F)cc1F (centres unmarked) [Example 117, 4-(((1-(2,4-difluorophenyl)-2-((3-fluorophenyl)sulfonyl)-2,4,5,6-tetrahydrocyclopenta[c]pyrrol-4-yl)(methyl)amino)methyl)-5-methyl-1,3-dioxol-2-one] | 2.44
2 | Cc1oc(=O)oc1COC(=O)N(C)C1CCc2c1cn(S(=O)(=O)c1cccc(Cl)c1)c2-c1ccccc1F (centres unmarked) [Example 118, (5-methyl-2-oxo-1,3-dioxol-4-yl)methyl (2-((3-chlorophenyl)sulfonyl)-1-(2-fluorophenyl)-2,4,5,6-tetrahydrocyclopenta[c]pyrrol-4-yl)(methyl)carbamate] | 40
3 | Cc1oc(=O)oc1CN(C)C1CCc2c1cn(S(=O)(=O)c1cccc(Cl)c1)c2-c1ccccc1F (centres unmarked) [Example 119, 4-(((2-((3-chlorophenyl)sulfonyl)-1-(2-fluorophenyl)-2,4,5,6-tetrahydrocyclopenta[c]pyrrol-4-yl)(methyl)amino)methyl)-5-methyl-1,3-dioxol-2-one] | 2.16
4 | CNC1CCCc2c1cn(S(=O)(=O)c1cccc(F)c1)c2-c1ccccc1F (centres unmarked) [Example 120, 1-(2-fluorophenyl)-2-((3-fluorophenyl)sulfonyl)-N-methyl-4,5,6,7-tetrahydro-2H-isoindole-4-amine] | 1.5
5 | CNC1CCCc2c1cn(S(=O)(=O)c1cccc(C)c1)c2-c1ccccc1F (centres unmarked) [Example 121, 1-(2-fluorophenyl)-N-methyl-2-(m-tolylsulfonyl)-4,5,6,7-tetrahydro-2H-isoindole-4-amine] | 1.5
6 | CNC1CCCc2c1cn(S(=O)(=O)c1cccc(OC)c1)c2-c1ccccc1F (centres unmarked) [Example 122, 1-(2-fluorophenyl)-2-((3-methoxyphenyl)sulfonyl)-N-methyl-4,5,6,7-tetrahydro-2H-isoindole-4-amine] | 1.5
7 | CNC1CCCc2c1cn(S(=O)(=O)c1cccc(OC(F)F)c1)c2-c1ccccc1F (centres unmarked) [Example 123, 2-((3-(difluoromethoxy)phenyl)sulfonyl)-1-(2-fluorophenyl)-N-methyl-4,5,6,7-tetrahydro-2H-isoindole-4-amine] | 2
8 | CNC1CCCc2c1cn(S(=O)(=O)c1cccc(C(F)(F)F)c1)c2-c1ccccc1F (centres unmarked) [Example 124, 1-(2-fluorophenyl)-N-methyl-2-((3-(trifluoromethyl)phenyl)sulfonyl)-4,5,6,7-tetrahydro-2H-isoindole-4-amine] | 4.18
9 | CNC1CCCc2c1cn(S(=O)(=O)c1cccc(OC(F)(F)F)c1)c2-c1ccccc1F (centres unmarked) [Example 125, 1-(2-fluorophenyl)-N-methyl-2-((3-(trifluoromethoxy)phenyl)sulfonyl)-4,5,6,7-tetrahydro-2H-isoindole-4-amine] | 4.42
10 | CNC1CCCc2c1cn(S(=O)(=O)c1cc(Cl)ccc1F)c2-c1ccccc1F (centres unmarked) [Example 126, 2-((5-chloro-2-fluorophenyl)sulfonyl)-1-(2-fluorophenyl)-N-methyl-4,5,6,7-tetrahydro-2H-isoindole-4-amine] | 4
11 | CNC1CCCc2c1cn(S(=O)(=O)c1cccc(Cl)c1)c2-c1ccc(-c2ccccc2)cc1 (centres unmarked) [Example 127, 1-([1,1′-biphenyl]-4-yl)-2-((3-chlorophenyl)sulfonyl)-N-methyl-4,5,6,7-tetrahydro-2H-isoindole-4-amine] | 4.53
12 | CNC1CCCc2c1cn(S(=O)(=O)c1cccc(Cl)c1)c2-c1ccncc1 (centres unmarked) [Example 128, 2-((3-chlorophenyl)sulfonyl)-N-methyl-1-(pyridin-4-yl)-4,5,6,7-tetrahydro-2H-isoindole-4-amine] | 50
13 | CNC1CCCc2c1cn(S(=O)(=O)c1cccc(Cl)c1)c2-c1cncnc1 (centres unmarked) [Example 129, 2-((3-chlorophenyl)sulfonyl)-N-methyl-1-(pyrimidin-5-yl)-4,5,6,7-tetrahydro-2H-isoindole-4-amine] | 40
14 | CNC1CCCc2c1cn(S(=O)(=O)c1cccc(N(C)C)c1)c2-c1ccccc1F (centres unmarked) [Example 130, 2-((3-(dimethylamino)phenyl)sulfonyl)-1-(2-fluorophenyl)-N-methyl-4,5,6,7-tetrahydro-2H-isoindole-4-amine] | 1.5
